Patent US20260317324A1, “BIFUNCTIONAL COMPOUNDS FOR DEGRADING BRAF VIA UBIQUITIN PROTEOSOME PATHWAY” (Nurix Therapeutics, Inc., priority 2023, published 2026)

What was measured:
Type in all cases: cell-based
BRAF V600E = target: T1, BRAF V600E (Homo sapiens, UniProt P15056, V600E); test: BRAF HiBiT degradation assay, C-terminal HiBiT-tagged BRAF V600E A375 cells (clone 1F10), Nano-Glo HiBiT Lytic assay; settings: A375 (BRAF V600E); for DC50: DC50 at 50%: fitted conc. at Y=50; for Dmax: A-375, percentage protein degraded at maximal compound effect relative to DMSO
T1 construct: endogenous C-terminal HiBiT fusion tag on BRAF V600E allele; endogenous in cells; host or cells: A375 clone 1F10 (CRISPR-Cas9 knock-in of the HiBiT tag; parental A375 from ATCC)
T1 sequence (P15056 whole entry V600E, the tested form may be a part): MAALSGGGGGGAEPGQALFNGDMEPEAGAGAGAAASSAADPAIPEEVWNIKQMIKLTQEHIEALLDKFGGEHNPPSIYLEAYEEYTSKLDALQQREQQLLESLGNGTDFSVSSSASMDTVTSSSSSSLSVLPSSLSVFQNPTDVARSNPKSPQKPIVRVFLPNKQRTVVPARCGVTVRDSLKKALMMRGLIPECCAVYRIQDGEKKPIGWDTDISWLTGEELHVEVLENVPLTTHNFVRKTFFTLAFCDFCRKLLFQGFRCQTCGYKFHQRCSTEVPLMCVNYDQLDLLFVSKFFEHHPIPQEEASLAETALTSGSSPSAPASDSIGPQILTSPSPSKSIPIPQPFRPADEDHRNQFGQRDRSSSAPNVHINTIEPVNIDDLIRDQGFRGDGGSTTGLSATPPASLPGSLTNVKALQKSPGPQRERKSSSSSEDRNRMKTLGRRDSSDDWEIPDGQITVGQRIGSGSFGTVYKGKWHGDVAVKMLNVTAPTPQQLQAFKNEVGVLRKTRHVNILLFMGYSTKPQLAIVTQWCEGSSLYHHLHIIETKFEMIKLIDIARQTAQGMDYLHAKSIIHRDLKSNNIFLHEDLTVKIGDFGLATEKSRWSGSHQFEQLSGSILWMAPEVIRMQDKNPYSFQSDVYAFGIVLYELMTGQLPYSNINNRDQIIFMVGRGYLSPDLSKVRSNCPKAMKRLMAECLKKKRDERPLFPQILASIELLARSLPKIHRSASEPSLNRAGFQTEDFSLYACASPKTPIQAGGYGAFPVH
Summary of the method: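 Luminescence from the Nano-Glo HiBiT lytic read-out gave % BRAF V600E remaining versus DMSO-treated tagged cells, with untagged A375 as background. Clone 1F10 cells (10,000/well, 24 h pre-culture) received compound at 1 μM–0.01 nM in half-log steps, 0.2% DMSO; curve fits gave DC50 at Y=50, plus observed Dmax.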

BRAF G466V = target: T2, BRAF G466V (Homo sapiens, UniProt P15056, G466V); test: BRAF HiBiT degradation assay, C-terminal HiBiT-tagged BRAF G466V overexpressed in HCT-116 BRAF−/− cells (clone 8), Nano-Glo HiBiT Lytic assay; settings: BRAF G466V; for DC50: DC50 at 50%: fitted conc. at Y=50; for Dmax: HCT-116, percentage protein degraded at maximal compound effect relative to DMSO
T2 construct: Horizon Discovery (HCT-116 BRAF−/− cells); host or cells: HCT-116 BRAF−/− cells, clone 8, lentiviral transduction
T2 sequence (P15056 whole entry G466V): as the sequence (P15056 whole entry V600E, the tested form may be a part) above, with G466V, E600V counted along it
Summary of the method: (§1)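 Degradation was read by Nano-Glo HiBiT lytic luminescence, normalised to DMSO-treated tagged cells with wildtype HCT-116 as background. Test cells were lentiviral clones of HCT-116 BRAF−/− carrying HiBiT-tagged mutants in RPMI/10% FBS, given compound at 0.01 nM–1 μM in duplicate. Outputs are the curve-fitted concentration giving 50% degradation and the maximal observed degradation.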

BRAF G469A = target: T3, BRAF G469A (Homo sapiens, UniProt P15056, G469A); test: BRAF HiBiT degradation assay, C-terminal HiBiT-tagged BRAF G469A overexpressed in HCT-116 BRAF−/− cells (clone 34), Nano-Glo HiBiT Lytic assay; settings: Class 2, BRAF G469A; for DC50: DC50 at 50%: fitted conc. at Y=50; for Dmax: HCT-116, percentage protein degraded at maximal compound effect relative to DMSO
T3 construct: Horizon Discovery (HCT-116 BRAF−/− cells); host or cells: HCT-116 BRAF−/− cells, clone 34, lentiviral transduction
T3 sequence (P15056 whole entry G469A): as the sequence (P15056 whole entry V600E, the tested form may be a part) above, with G469A, E600V counted along it
Summary of the method: as §1

BRAF D594G = target: T4, BRAF D594G (Homo sapiens, UniProt P15056, D594G); test: BRAF HiBiT degradation assay, C-terminal HiBiT-tagged BRAF D594G overexpressed in HCT-116 BRAF−/− cells (clone 63), Nano-Glo HiBiT Lytic assay; settings: BRAF D594G; for DC50: DC50 at 50%: fitted conc. at Y=50; for Dmax: HCT-116, percentage protein degraded at maximal compound effect relative to DMSO
T4 construct: Horizon Discovery (HCT-116 BRAF−/− cells); host or cells: HCT-116 BRAF−/− cells, clone 63, lentiviral transduction
T4 sequence (P15056 whole entry D594G): as the sequence (P15056 whole entry V600E, the tested form may be a part) above, with D594G, E600V counted along it
Summary of the method: as §1

SMILES: CCCS(=O)(=O)Nc1cccc(-c2nc(C(C)(C)C)sc2-c2ccnc(Nc3ccc4c(c3)CCN(CC3CCN(c5ccc6c(=O)n(C7CCC(=O)NC7=O)ccc6c5)CC3)C4)n2)c1F (racemic) [Compound 85, Rac-N-(3-{2-tert-butyl-5-[2-({2-[(1-{2-[(3R)-2,6-dioxopiperidin-3-yl]-1-oxo-1,2-dihydroisoquinolin-6-yl}piperidin-4-yl)methyl]-1,2,3,4-tetrahydroisoquinolin-6-yl}amino)pyrimidin-4-yl]-1,3-thiazol-4-yl}-2-fluorophenyl)propane-1-sulfonamide]
- DC50 (BRAF V600E): 0.01 to 0.05 µM
- Dmax (BRAF V600E): 30 to 70%
- DC50 (BRAF G466V): > 0.5 µM
- Dmax (BRAF G466V): 30 to 70%
- DC50 (BRAF G469A): > 0.5 µM
- Dmax (BRAF G469A): < 30%
- DC50 (BRAF D594G): > 0.5 µM
- Dmax (BRAF D594G): 30 to 70%

SMILES: CCCS(=O)(=O)Nc1cccc(-c2nc(C(C)(C)C)sc2-c2ccnc(Nc3cccc(OC4CCN(C(=O)CN5CCC(c6ccc(NC7CCC(=O)NC7=O)cc6)CC5)CC4)c3)n2)c1F (racemic) [Compound 96, Rac-N-(3-{2-tert-butyl-5-[2-({3-[(1-{2-[4-(4-{[(3R)-2,6-dioxopiperidin-3-yl]amino}phenyl)piperidin-1-yl]acetyl}piperidin-4-yl)oxy]phenyl}amino)pyrimidin-4-yl]-1,3-thiazol-4-yl}-2-fluorophenyl)propane-1-sulfonamide]
- DC50 (BRAF V600E): 0.01 to 0.05 µM
- Dmax (BRAF V600E): > 70%
- DC50 (BRAF G466V): > 0.5 µM
- Dmax (BRAF G466V): 30 to 70%
- DC50 (BRAF G469A): > 0.5 µM
- Dmax (BRAF G469A): 30 to 70%
- DC50 (BRAF D594G): > 0.5 µM
- Dmax (BRAF D594G): 30 to 70%

SMILES: CCCS(=O)(=O)Nc1cccc(-c2nc(C(C)(C)C)sc2-c2ccnc(Nc3cccc(OC4CCN(C(=O)[C@H]5CC[C@H](Oc6ccc(C7CCC(=O)NC7=O)cn6)CC5)CC4)c3)n2)c1F (mixture of isomers) [Compound 97, N-{3-[2-tert-butyl-5-(2-{[3-({1-[(1r,4r)-4-({5-[(3RS)-2,6-dioxopiperidin-3-yl]pyridin-2-yl}oxy)cyclohexanecarbonyl]piperidin-4-yl}oxy)phenyl]amino}pyrimidin-4-yl)-1,3-thiazol-4-yl]-2-fluorophenyl}propane-1-sulfonamide]
- DC50 (BRAF V600E): 0.01 to 0.05 µM
- Dmax (BRAF V600E): > 70%
- DC50 (BRAF G466V): > 0.5 µM
- Dmax (BRAF G466V): 30 to 70%
- DC50 (BRAF G469A): > 0.5 µM
- Dmax (BRAF G469A): < 30%
- DC50 (BRAF D594G): > 0.5 µM
- Dmax (BRAF D594G): 30 to 70%

SMILES: CCCS(=O)(=O)Nc1cccc(-c2nc(C(C)(C)C)sc2-c2ccnc(Nc3cccc(OC4CCN(C(=O)C5CCN(c6cc(C7CCC(=O)NC7=O)ccn6)CC5)CC4)c3)n2)c1F (racemic) [Compound 100, Rac-N-[3-(2-tert-butyl-5-{2-[(3-{[1-(1-{4-[(3R)-2,6-dioxopiperidin-3-yl]pyridin-2-yl}piperidine-4-carbonyl)piperidin-4-yl]oxy}phenyl)amino]pyrimidin-4-yl}-1,3-thiazol-4-yl)-2-fluorophenyl]propane-1-sulfonamide]
- DC50 (BRAF V600E): < 0.01 µM
- Dmax (BRAF V600E): > 70%
- DC50 (BRAF G466V): > 0.5 µM
- Dmax (BRAF G466V): < 30%
- DC50 (BRAF G469A): > 0.5 µM
- Dmax (BRAF G469A): < 30%
- DC50 (BRAF D594G): 0.05 to 0.5 µM
- Dmax (BRAF D594G): 30 to 70%

SMILES: CCCS(=O)(=O)Nc1cccc(-c2nc(C(C)(C)C)sc2-c2ccnc(Nc3cnn(C4CCN(C(=O)CN5CCC(c6ccc(NC7CCC(=O)NC7=O)cc6)CC5)CC4)c3)n2)c1F (racemic) [Compound 108, Rac-N-{3-[2-tert-butyl-5-(2-{[1-(1-{2-[4-(4-{[(3R)-2,6-dioxopiperidin-3-yl]amino}phenyl)piperidin-1-yl]acetyl}piperidin-4-yl)-1H-pyrazol-4-yl]amino}pyrimidin-4-yl)-1,3-thiazol-4-yl]-2-fluorophenyl}propane-1-sulfonamide]
- DC50 (BRAF V600E): < 0.01 µM
- Dmax (BRAF V600E): > 70%
- DC50 (BRAF G466V): > 0.5 µM
- Dmax (BRAF G466V): < 30%
- DC50 (BRAF G469A): > 0.5 µM
- Dmax (BRAF G469A): < 30%
- DC50 (BRAF D594G): > 0.5 µM
- Dmax (BRAF D594G): 30 to 70%

SMILES: CCCS(=O)(=O)Nc1cccc(-c2nc(C(C)(C)C)sc2-c2ccnc(Nc3cnn(C4CCN(C(=O)[C@H]5CC[C@H](Oc6ccc(C7CCC(=O)NC7=O)cn6)CC5)CC4)c3)n2)c1F (mixture of isomers) [Compound 109, N-[3-(2-tert-butyl-5-{2-[(1-{1-[(1r,4r)-4-({5-[(3RS)-2,6-dioxopiperidin-3-yl]pyridin-2-yl}oxy)cyclohexanecarbonyl]piperidin-4-yl}-1H-pyrazol-4-yl)amino]pyrimidin-4-yl}-1,3-thiazol-4-yl)-2-fluorophenyl]propane-1-sulfonamide]
- DC50 (BRAF V600E): < 0.01 µM
- Dmax (BRAF V600E): > 70%
- DC50 (BRAF G466V): > 0.5 µM
- Dmax (BRAF G466V): < 30%
- DC50 (BRAF G469A): > 0.5 µM
- Dmax (BRAF G469A): < 30%
- DC50 (BRAF D594G): > 0.5 µM
- Dmax (BRAF D594G): < 30%

SMILES: CCCS(=O)(=O)Nc1cccc(-c2nc(C(C)(C)C)sc2-c2ccnc(Nc3cnn(C4CCN(C(=O)[C@H]5CC[C@H](Oc6ccc(C7CCC(=O)NC7=O)cc6)CC5)CC4)c3)n2)c1F (mixture of isomers) [Compound 110, N-[3-(2-tert-butyl-5-{2-[(1-{1-[(1r,4r)-4-{4-[(3RS)-2,6-dioxopiperidin-3-yl]phenoxy}cyclohexanecarbonyl]piperidin-4-yl}-1H-pyrazol-4-yl)amino]pyrimidin-4-yl}-1,3-thiazol-4-yl)-2-fluorophenyl]propane-1-sulfonamide]
- DC50 (BRAF V600E): < 0.01 µM
- Dmax (BRAF V600E): 30 to 70%
- DC50 (BRAF G466V): > 0.5 µM
- Dmax (BRAF G466V): < 30%
- DC50 (BRAF G469A): > 0.5 µM
- Dmax (BRAF G469A): < 30%
- DC50 (BRAF D594G): > 0.5 µM
- Dmax (BRAF D594G): < 30%

SMILES: CCCS(=O)(=O)Nc1cccc(-c2nc(C(C)(C)C)sc2-c2ccnc(Nc3cnn(CC4CCN(C(=O)CN5CCC(c6ccc(NC7CCC(=O)NC7=O)cc6)CC5)CC4)c3)n2)c1F (racemic) [Compound 116, Rac-N-(3-{2-tert-butyl-5-[2-({1-[(1-{2-[4-(4-{[(3R)-2,6-dioxopiperidin-3-yl]amino}phenyl)piperidin-1-yl]acetyl}piperidin-4-yl)methyl]-1H-pyrazol-4-yl}amino)pyrimidin-4-yl]-1,3-thiazol-4-yl}-2-fluorophenyl)propane-1-sulfonamide]
- DC50 (BRAF V600E): 0.01 to 0.05 µM
- Dmax (BRAF V600E): > 70%
- DC50 (BRAF G466V): > 0.5 µM
- Dmax (BRAF G466V): 30 to 70%
- DC50 (BRAF G469A): > 0.5 µM
- Dmax (BRAF G469A): < 30%
- DC50 (BRAF D594G): > 0.5 µM
- Dmax (BRAF D594G): < 30%

SMILES: CCCS(=O)(=O)Nc1cccc(-c2nc(C(C)(C)C)sc2-c2ccnc(Nc3cnn(CC4CCN(C(=O)[C@H]5CC[C@H](Oc6ccc(C7CCC(=O)NC7=O)cn6)CC5)CC4)c3)n2)c1F (mixture of isomers) [Compound 117, N-{3-[2-tert-butyl-5-(2-{[1-({1-[(1r,4r)-4-({5-[(3RS)-2,6-dioxopiperidin-3-yl]pyridin-2-yl}oxy)cyclohexanecarbonyl]piperidin-4-yl}methyl)-1H-pyrazol-4-yl]amino}pyrimidin-4-yl)-1,3-thiazol-4-yl]-2-fluorophenyl}propane-1-sulfonamide]
- DC50 (BRAF V600E): < 0.01 µM
- Dmax (BRAF V600E): > 70%
- DC50 (BRAF G466V): > 0.5 µM
- Dmax (BRAF G466V): < 30%
- DC50 (BRAF G469A): > 0.5 µM
- Dmax (BRAF G469A): < 30%
- DC50 (BRAF D594G): > 0.5 µM
- Dmax (BRAF D594G): 30 to 70%

SMILES: CCCS(=O)(=O)Nc1cccc(-c2nc(C(C)(C)C)sc2-c2ccnc(Nc3cnn(CC4CCN(C(=O)[C@H]5CC[C@H](Oc6ccc(C7CCC(=O)NC7=O)cc6)CC5)CC4)c3)n2)c1F (mixture of isomers) [Compound 118, N-{3-[2-tert-butyl-5-(2-{[1-({1-[(1r,4r)-4-{4-[(3RS)-2,6-dioxopiperidin-3-yl]phenoxy}cyclohexanecarbonyl]piperidin-4-yl}methyl)-1H-pyrazol-4-yl]amino}pyrimidin-4-yl)-1,3-thiazol-4-yl]-2-fluorophenyl}propane-1-sulfonamide]
- DC50 (BRAF V600E): < 0.01 µM
- Dmax (BRAF V600E): > 70%
- DC50 (BRAF G466V): > 0.5 µM
- Dmax (BRAF G466V): < 30%
- DC50 (BRAF G469A): > 0.5 µM
- Dmax (BRAF G469A): < 30%
- DC50 (BRAF D594G): > 0.5 µM
- Dmax (BRAF D594G): 30 to 70%

SMILES: CCCS(=O)(=O)Nc1cccc(-c2nc(C(C)(C)C)sc2-c2ccnc(Nc3cnn(CC4CCN(C(=O)CN5CCc6cc(C7CCC(=O)NC7=O)ccc6C5)CC4)c3)n2)c1F (racemic) [Compound 119, Rac-N-[3-(2-tert-butyl-5-{2-[(1-{[1-(2-{6-[(3R)-2,6-dioxopiperidin-3-yl]-1,2,3,4-tetrahydroisoquinolin-2-yl}acetyl)piperidin-4-yl]methyl}-1H-pyrazol-4-yl)amino]pyrimidin-4-yl}-1,3-thiazol-4-yl)-2-fluorophenyl]propane-1-sulfonamide]
- DC50 (BRAF V600E): < 0.01 µM
- Dmax (BRAF V600E): > 70%
- DC50 (BRAF G466V): > 0.5 µM
- Dmax (BRAF G466V): < 30%
- DC50 (BRAF G469A): > 0.5 µM
- Dmax (BRAF G469A): < 30%
- DC50 (BRAF D594G): > 0.5 µM
- Dmax (BRAF D594G): 30 to 70%
